The test system of series [1] is E. coli D21f2tolC. Format: cell-based, Escherichia coli. The settings on record: for cross-resistance of E. coli Lpm-resistant mutants to the compound: chromosomal Lpm-resistant mutants of E. coli D21f2tolC, Fig. 2D; for MICwild-type: wild-type E. coli D21f2tolC, LB broth, 16 h at 37°C, growth inhibited by ≥90%.
Series [2] has as its system RNAP clamp. The settings on record: interactions with SW1 and opposite face of SW2; ref Chakraborty et al., 2012; cited from earlier work.
Series [3] concerns the target Mtb RNAP σ^A holoenzyme (Mycobacterium tuberculosis, UniProt P9WGY7+P9WGY9). In words: Fluorescence-detected RNAP-inhibition assay. Format: biochemical.
Series [4] concerns the target E. coli RNAP σ^70 holoenzyme (Escherichia coli, UniProt P0A8T7+P0A8V2). Description: Fluorescence-detected RNAP-inhibition assay. It counts as biochemical.
In series [5] the target is S. aureus RNAP σ^A holoenzyme (Staphylococcus aureus, UniProt P47768+Q2G0N5). In words: Fluorescence-detected RNAP-inhibition assay. Particulars: Fig. S5. It counts as biochemical.
Series [6] concerns the target T. thermophilus RNAP σ^A holoenzyme (Thermus thermophilus, UniProt Q8RQE8+Q8RQE9). In words: Fluorescence-detected RNAP-inhibition assay. Format: biochemical.
Series [7] deals with human RNAP I/II/III. In words: Radiochemical RNAP-inhibition assay with HeLa nuclear extract. Format: biochemical. The settings on record: Fig. S4C.
For series [8], the system named is E. coli D21f2tolC. Description: Checkerboard interaction assay. It counts as cell-based, Escherichia coli. The settings on record: combination of Lpm and Rif; checkerboard format; Fig. 2F.
The target of series [9] is E. coli RNAP σ^70 holoenzyme (Escherichia coli, UniProt P0A8T7+P0A8V2, D284F/E106F). Description: Single-molecule FRET of RNAP clamp conformation. It counts as biochemical. The settings on record: 20 μM Lpm; Fig. 4E-F.
Series [10] deals with E. coli strain D21f2tolC. Description: Colony formation on LB-agar plates containing Lpm. Format: cell-based, Escherichia coli. The settings on record: 200 μg/ml ampicillin, 1 mM IPTG, 24-48 h at 37°C.
For series [11] the following is noted: in vivo; cited from earlier work.

Consider GE23077, for which, in series [1], the “cross-resistance of E. coli Lpm-resistant mutants to the compound” value (shortened to “cross-resistance … to the compound”) is “Absence of significant cross-resistance” and the MICwild-type is 500 µg/mL.

`C/C(=C\Cc1ccccc1)CCC(=O)C[C@H]1C[C@H](O)C/C(C)=C/C/C=C/C/C(CC(=O)O)=C\C(=O)O1` [Rip, ripostatin]: the “effect on RNAP clamp conformation” value in series [2] is “trap a closed-clamp state”.

With salinamide, in [1], the “cross-resistance … to the compound” value was “Absence of significant cross-resistance” and the MICwild-type was 0.049 µg/mL.

As for `C/C=C/C/C=C(\C)C(O)CC/C(C)=C/C=C(\C)C(=O)c1c(O)cc([C@H](C)CC/C=C/NC(=O)OC)oc1=O` (some centres unmarked) [Cor, corallopyronin], the “effect on RNAP clamp conformation” value in [2] is “trap a closed-clamp state”.

Turning to `CO[C@H]1/C=C/O[C@@]2(C)Oc3c(C)c(O)c4c(O)c(c(/C=N/N5CCN(C)CC5)c(O)c4c3C2=O)NC(=O)/C(C)=C\C=C\[C@H](C)[C@H](O)[C@@H](C)[C@@H](O)[C@@H](C)[C@H](OC(C)=O)[C@@H]1C` [Rif, rifampin], in series [1], the “cross-resistance … to the compound” value is on record as “Absence of significant cross-resistance” and the MICwild-type was 0.20 µg/mL.

As for `NC(=O)CC[C@@H](C(=O)NC[C@H]1O[C@@H](c2c[nH]c(=O)[nH]c2=O)[C@H](O)[C@@H]1O)N(O)C(=O)CN=C(N)N` [PUM, pseudoridimycin], in series [1], the “cross-resistance … to the compound” value is given as “Absence of significant cross-resistance” and the MICwild-type worked out at 400 µg/mL.

For 4"-O-benzyl-Lpm [a1], in series [3], the “potency in inhibiting Mtb RNAP relative to Lpm” value is reported as “within approximately an order of magnitude of that of Lpm”. For the same compound, the “potency in inhibiting Escherichia coli RNAP relative to Lpm” value in [4] (Fig. S5) is “equal to that of Lpm”. Further, the “potency in inhibiting S. aureus RNAP relative to Lpm” value in [5] is recorded as “within approximately an order of magnitude of that of Lpm”.

Consider `CNC(=O)[C@@H](C)[C@H]1C(=O)/C(=C(O)/C=C/C(C)=C/[C@@H](C)[C@H]2O[C@@]3(C)O[C@H](C=C[C@@]34CO4)[C@@H]2C)C(=O)N1[C@@H]1CC[C@H](O)[C@H](C)O1` [Stl, streptolydigin], for which, in series [1], the “cross-resistance … to the compound” value is “Absence of significant cross-resistance” and the MICwild-type worked out at 3.13 µg/mL.

For the compound `CCc1c(Cl)c(O)c(Cl)c(O)c1C(=O)O[C@H]1[C@H](O)[C@H](OC)[C@H](OC/C2=C\C=C\C[C@H](O)/C(C)=C/[C@H](CC)[C@@H](O[C@@H]3OC(C)(C)[C@@H](OC(=O)C(C)C)[C@H](O)[C@@H]3O)/C(C)=C/C(C)=C/C[C@@H]([C@@H](C)O)OC2=O)O[C@@H]1C` [Lpm, lipiarmycin A3], the IC50 in [4] came out at 8 µM; in series [6], 200 µM. Besides, the “ability to inhibit human RNAP I, II, and III” value in series [7] was “not human RNAP I, II, and III”. Further, the “cross-resistance of E. coli Rif-, GE/PUM-, Sal-, CBR-, and Stl-resistant mutants to Lpm” value in [1] (E. coli D21f2tolC derivatives, Fig. 2E) is “Absence of significant cross-resistance”. For the same compound, in series [1], the MICwild-type turned out to be 1.56 µg/mL. In addition, in series [8], the “antibacterial interaction of Lpm and Rif when co-administered” value is recorded as “additive antibacterial activity”. Further, the “effect on RNAP clamp conformation in solution” value in series [9] was “traps the open-clamp state”. Besides, the “minimal concentration that prevents colony formation by wild-type transformants” value in [10] is 5 µg/mL. Besides, in series [11], the systemic bioavailability result was “no systemic bioavailability”.

Take `ONC(=Nc1ccccc1)c1cccc(C(F)(F)F)c1` [CBR, CBR703]: in series [1], the “cross-resistance … to the compound” value is “Absence of significant cross-resistance” and the MICwild-type is 6.25 µg/mL.

Take myxopyronin: in series [1], the “cross-resistance … to the compound” value is on record as “Absence of significant cross-resistance” and the MICwild-type worked out at 0.20 µg/mL. Further, the “effect on RNAP clamp conformation” value in series [2] is reported as “trap a closed-clamp state”.

In general, IC50 refers to the concentration that inhibits the measured activity by half. The low end stands for higher potency, the high end for lower potency.
